Test results as given in patent US7537906B2, “Apoptosis inducer and method of screening for a substance inhibiting acylated homoserine lactone” (priority 2003, dated 2009).

Experiments:
Akt = Akt activity by Western blot in porcine vascular endothelial cells (PECs); assay type: cell-based; details: 100 μM, 10 minutes
Procedure: Porcine vascular endothelial cells (PECs) were cultured at 37° C. in the presence of 5% CO2 using a DMEM medium containing 10% FCS, 1% NEAA and 1% P/S (100 units/ml penicillin and 100 μg/ml streptomycin).
6×10^5 PECs were inoculated per dish using 6 cm dishes (NUNC), washed twice with phosphate buffered saline (PBS) (-), and then cultured for 24 hours in a serum-free DMEM medium containing 1% NEAA. Subsequently, at a final concentration of 100 μM, homoserine lactone hydrochloride, N-butyryl-L-homoserine lactone, N-(3-oxohexanoyl)-L-homoserine lactone and N-(3-oxododecanoyl)-L-homoserine lactone were each added, and then each solution was allowed to react for 10 minutes. Similarly to (1), the effect of acylated homoserine lactone on Akt activity in PECs were examined by Western blotting.

JNK = test: MAP kinase activity by Western blot in CaCo-2 cells: phosphorylated JNK; assay type: cell-based, human; details: 10 minutes
Procedure: A CaCo-2 carcinoma cell line of human colon cancer was purchased from American Type Culture Collection (ATCC), and cultured at 37° C. in the presence of 5% CO2 using a DMEM medium containing 10% FCS, 1% NEAA and 1% P/S (100 units/ml penicillin and 100 μg/ml streptomycin).
6×10^5 CaCo-2 cells were inoculated per dish using 6 cm dishes (NUNC), washed twice with phosphate buffered saline (PBS) (-), and then cultured in a serum-free DMEM medium containing 1% NEAA for 24 hours. Subsequently, at a final concentration of 100 μM, homoserine lactone hydrochloride and N-(3-oxododecanoyl)-L-homoserine lactone were each added, and then each solution was allowed to react for 10 minutes. […]
After reaction, the product was washed twice with cold PBS (-), and then frozen at −80° C. […] Concentration of the collected protein was measured, and then the protein equivalent to 50 μg was subjected to SDS-PAGE. […] When phosphorylated ERK, JNK, p38 and Akt were measured, blocking was carried out with 0.1% Tween 20 (TBS-T) containing 5% skim milk/Tris-buffered saline. […]
After cell culture, MAP kinase activity and Akt activity were analyzed by Western blot in a manner similar to that used in (1), except that N-(3-oxododecanoyl)-L-homoserine lactones in final concentrations of 0 μM (0.25% DMSO), 1 μM, 10 μM, 30 μM and 100 μM were each added and each solution was allowed to react for 10 minutes (FIG. 8).

CaCo-2 cells [1] = test: Chromatin condensation and determination of apoptosis by Hoechst33342 staining; assay type: cell-based, human; details: 12 hours of culture
Procedure: 2×10^4 CaCo-2 cells were inoculated on an 8-well culture slide (Collagen I Cellware BioCoat, Becton Dickinson), washed twice with PBS (-), and then cultured in a serum-free DMEM medium containing 1% NEAA for 24 hours. 3-oxododecanoyl homoserine lactone was added at each concentration (1 to 100 μM). After 12 hours of culture, the cells were fixed by 4% paraformaldehyde-3% sucrose/PBS, chromatin staining was carried out using Hoechst 33342 fluorescent dye, and then the cells were observed under a fluorescence microscope. With a magnification of ×400, 5 visual fields were selected at random. Apoptotic cells and normal cells were counted and the proportion of apoptotic cells was calculated. These steps were denoted as n=1, and conducted 3 times or more.

CaCo-2 cells [2] = test: Effects of kinase inhibitors on N-(3-oxododecanoyl)-L-homoserine lactone-dependent apoptosis, viability by Trypan blue staining; assay type: cell-based, human; details: 30 μM alone, 12 hours, control 96%
Procedure: 2×10^5 CaCo-2 cells were inoculated per 3.5 cm dish, cultured for 12 hours in the presence of 10% serum, washed twice with PBS (-), and then synchronously cultured in a serum-free medium for 24 hours. Pretreatment with various inhibitors (50 μM PD98059 and 20 μM SB203580) or DMSO was carried out for 30 minutes. Then 30 μM N-(3-oxododecanoyl)-L-homoserine lactone or DMSO was added, the cells were cultured for 12 hours, and then viability was measured by Trypan blue staining.

TNF-α = details: mouse macrophage culture system; cited from earlier work

Q: Which results are given for CCCCCCCCCC(=O)CC(=O)N[C@H]1CCOC1=O [N-(3-oxododecanoyl)-L-homoserine lactone]?
A: Akt activity in PECs (Akt): significantly decreases; JNK activity, concentration dependence (JNK; 0-100 μM): no concentration-dependent significant difference; activation of JNK (JNK; 100 μM): promoted; cell morphology by Hoechst 33342 staining (CaCo-2 cells [1]; 1 μM): only normal cells were observed; proportion of apoptotic cells to the total cell count (CaCo-2 cells [1]; 10 μM): 15%; proportion of apoptotic cells to the total cell count (CaCo-2 cells [1]; 30 μM): 39%; proportion of apoptotic cells to the total cell count (CaCo-2 cells [1]; 100 μM): 50%; concentration at which apoptotic cells exhibiting chromatin condensation were observed (CaCo-2 cells [1]): ≥ 10 µM; viability (CaCo-2 cells [2]): 49%; TNF-α production (TNF-α): promotes
